This note sets out measurements from ChEMBL document CHEMBL4145686, “Discovery of a Potent and Selective Steroidal Glucocorticoid Receptor Antagonist (ORIC-101)” (J Med Chem, 2018).

What is called Cmax is the peak of the concentration-time curve. For orientation: half-life means how long it takes for the measured level to halve. As usually defined, the IC50 is the concentration that gives 50% inhibition. As a reminder, the clearance is the rate of elimination divided by the concentration. What is called bioavailability is the share of a dose that reaches the circulation, judged against a reference dose that is usually intravenous. For orientation: AUC means the area under the concentration-time curve, a measure of exposure. What is called Emax is the greatest response seen or fitted, relative to the assay's reference.

Activity calls are given as the source filed them. The rule behind the calls is not given here.

The subject of one data set is OVCAR-5. The note with it: Homo sapiens, 100 mg/kg.
Data set [1] has as its target T1, Androgen receptor (Homo sapiens, UniProt P10275).
T1 sequence (P10275 whole entry): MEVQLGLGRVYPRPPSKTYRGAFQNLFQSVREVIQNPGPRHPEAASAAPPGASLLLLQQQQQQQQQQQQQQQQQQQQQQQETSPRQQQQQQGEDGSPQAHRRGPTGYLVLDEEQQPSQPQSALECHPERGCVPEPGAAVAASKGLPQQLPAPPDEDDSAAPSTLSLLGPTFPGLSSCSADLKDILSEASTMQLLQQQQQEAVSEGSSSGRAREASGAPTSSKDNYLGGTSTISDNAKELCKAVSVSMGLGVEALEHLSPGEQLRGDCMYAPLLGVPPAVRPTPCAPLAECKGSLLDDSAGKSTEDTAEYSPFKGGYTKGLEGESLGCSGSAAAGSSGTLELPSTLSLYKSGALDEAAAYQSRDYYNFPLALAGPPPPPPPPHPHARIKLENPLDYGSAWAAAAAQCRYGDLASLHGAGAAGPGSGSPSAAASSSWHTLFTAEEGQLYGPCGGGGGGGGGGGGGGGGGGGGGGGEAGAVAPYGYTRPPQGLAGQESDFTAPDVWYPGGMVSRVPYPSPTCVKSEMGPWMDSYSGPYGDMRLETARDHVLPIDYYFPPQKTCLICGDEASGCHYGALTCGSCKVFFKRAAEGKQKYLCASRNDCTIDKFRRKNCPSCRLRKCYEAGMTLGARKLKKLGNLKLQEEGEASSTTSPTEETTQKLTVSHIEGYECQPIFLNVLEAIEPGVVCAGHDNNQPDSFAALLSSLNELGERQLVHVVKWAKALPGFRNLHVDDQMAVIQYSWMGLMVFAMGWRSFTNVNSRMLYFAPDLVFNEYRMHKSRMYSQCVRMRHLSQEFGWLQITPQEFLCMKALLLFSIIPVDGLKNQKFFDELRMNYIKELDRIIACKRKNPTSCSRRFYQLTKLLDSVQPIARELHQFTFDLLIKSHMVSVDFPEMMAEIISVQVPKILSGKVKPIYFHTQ
In words: Agonist activity at AR in human LNAR cells assessed as increase in PSA gene expression at 0.1 nM incubated for 24 hrs in presence of 1 uM enzalutamide by RT-qPCR method. To be noted: 0.0001 µM. The class given is cell-based. A general note: In qPCR the cycle at which signal appears reflects the starting amount.

Data set [2] concerns the target T1, Androgen receptor. The data set can be described thus: Agonist activity at AR in human LNAR cells assessed as increase in PSA gene expression at 0.1 nM incubated for 24 hrs by RT-qPCR method. The class given is cell-based. The note with it: 0.0001 µM.
The target in data set [3] is T1, Androgen receptor. The data set can be described thus: Agonist activity at AR in human LNAR cells assessed as increase in TMPRSS2 gene expression at 0.1 nM incubated for 24 hrs in presence of 1 uM enzalutamide by RT-qPCR method. The class given is cell-based. To be noted: 0.0001 µM.
In data set [4] the target is T1, Androgen receptor. In words: Agonist activity at AR in human LNAR cells assessed as increase in TMPRSS2 gene expression at 0.1 nM incubated for 24 hrs by RT-qPCR method. The class given is cell-based. To be noted: 0.0001 µM.
A short description of data set [5]: Cmax in rat at 5 mg/kg, po. The class given is ADME, organism-based. Also on record: dose 5 mg/kg, route oral. To be noted: in vivo.
A short description of data set [6]: Half life in rat at 0.5 mg/kg, iv. The class given is ADME, organism-based. The note with it: in vivo.
The target in data set [7] is T2, Glucocorticoid receptor (Sus scrofa, UniProt Q9N1U3).
T2 sequence (Q9N1U3 whole entry): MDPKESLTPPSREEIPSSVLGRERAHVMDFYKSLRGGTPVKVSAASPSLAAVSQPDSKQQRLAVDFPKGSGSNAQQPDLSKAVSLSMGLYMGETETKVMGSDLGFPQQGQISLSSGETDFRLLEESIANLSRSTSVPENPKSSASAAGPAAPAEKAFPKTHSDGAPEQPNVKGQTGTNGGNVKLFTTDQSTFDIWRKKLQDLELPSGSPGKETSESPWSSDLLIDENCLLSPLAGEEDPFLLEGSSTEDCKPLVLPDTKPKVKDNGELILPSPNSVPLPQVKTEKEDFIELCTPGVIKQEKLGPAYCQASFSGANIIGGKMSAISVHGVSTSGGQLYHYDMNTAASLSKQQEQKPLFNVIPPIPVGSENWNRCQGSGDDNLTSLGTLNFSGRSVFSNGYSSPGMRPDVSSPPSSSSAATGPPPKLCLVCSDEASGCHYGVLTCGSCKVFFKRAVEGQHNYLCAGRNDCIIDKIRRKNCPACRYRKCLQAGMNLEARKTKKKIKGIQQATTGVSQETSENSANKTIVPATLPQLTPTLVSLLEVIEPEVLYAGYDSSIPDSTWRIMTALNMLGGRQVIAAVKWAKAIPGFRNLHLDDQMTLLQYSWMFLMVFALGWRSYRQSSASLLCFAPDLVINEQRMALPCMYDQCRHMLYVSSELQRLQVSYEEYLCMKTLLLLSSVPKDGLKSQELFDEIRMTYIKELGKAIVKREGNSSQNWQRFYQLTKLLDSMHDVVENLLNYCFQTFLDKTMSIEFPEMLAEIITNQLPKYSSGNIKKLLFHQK
In words: Antagonist activity at GR in mini pig PBMC assessed as reduction in dexamethasone-induced GILZ gene expression incubated for 24 hrs by RT-qPCR method. The class given is cell-based.

A further data set concerns the target Cytochrome P450 2C9 (Homo sapiens, UniProt P11712). In words: Inhibition of CYP2C9 (unknown origin) using […] as substrate. The class given is ADME.
Data set [8] can be described thus: Volume of distribution at steady state in rat at 0.5 mg/kg, iv. The class given is ADME, organism-based. The note with it: in vivo, read-out: Vdss.
A short description of data set [9]: Clearance in rat at 0.5 mg/kg, iv. To be noted: in vivo. The class given is ADME, organism-based.
The target of the next data set is T3, Cytochrome P450 2C8 (Homo sapiens, UniProt P10632).
T3 sequence (P10632 whole entry): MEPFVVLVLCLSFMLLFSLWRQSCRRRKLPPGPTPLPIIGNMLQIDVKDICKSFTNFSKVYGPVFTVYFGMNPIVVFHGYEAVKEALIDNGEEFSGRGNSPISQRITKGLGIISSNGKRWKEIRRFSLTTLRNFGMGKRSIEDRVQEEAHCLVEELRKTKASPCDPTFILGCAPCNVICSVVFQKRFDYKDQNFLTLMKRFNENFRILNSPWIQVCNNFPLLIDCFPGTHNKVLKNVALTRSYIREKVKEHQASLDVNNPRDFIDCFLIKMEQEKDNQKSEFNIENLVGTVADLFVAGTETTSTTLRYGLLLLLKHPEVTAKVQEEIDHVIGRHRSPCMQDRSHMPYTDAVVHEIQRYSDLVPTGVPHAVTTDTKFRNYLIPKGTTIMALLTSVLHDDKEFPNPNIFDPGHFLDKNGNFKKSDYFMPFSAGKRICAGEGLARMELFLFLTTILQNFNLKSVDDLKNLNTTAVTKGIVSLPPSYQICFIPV
The data set can be described thus: Inhibition of CYP2C8 (unknown origin) using […] as substrate. The class given is ADME.

Data set [10] is described as follows: Oral bioavailability in rat at 5 mg/kg. The class given is ADME, organism-based. The note with it: in vivo.
A short description of data set [11]: AUC in rat at 5 mg/kg, po. The note with it: in vivo. The class given is ADME, organism-based.
Data set [12] can be described thus: Antagonist activity at GR in monkey PBMC assessed as reduction in dexamethasone-induced GILZ gene expression incubated for 6 hrs by RT-qPCR method. The class given is cell-based. The note with it: Macaca mulatta.
The target of data set [13] is T4, Glucocorticoid receptor (Canis lupus familiaris, UniProt A0A8C0QLS2).
T4 sequence (A0A8C0QLS2 whole entry): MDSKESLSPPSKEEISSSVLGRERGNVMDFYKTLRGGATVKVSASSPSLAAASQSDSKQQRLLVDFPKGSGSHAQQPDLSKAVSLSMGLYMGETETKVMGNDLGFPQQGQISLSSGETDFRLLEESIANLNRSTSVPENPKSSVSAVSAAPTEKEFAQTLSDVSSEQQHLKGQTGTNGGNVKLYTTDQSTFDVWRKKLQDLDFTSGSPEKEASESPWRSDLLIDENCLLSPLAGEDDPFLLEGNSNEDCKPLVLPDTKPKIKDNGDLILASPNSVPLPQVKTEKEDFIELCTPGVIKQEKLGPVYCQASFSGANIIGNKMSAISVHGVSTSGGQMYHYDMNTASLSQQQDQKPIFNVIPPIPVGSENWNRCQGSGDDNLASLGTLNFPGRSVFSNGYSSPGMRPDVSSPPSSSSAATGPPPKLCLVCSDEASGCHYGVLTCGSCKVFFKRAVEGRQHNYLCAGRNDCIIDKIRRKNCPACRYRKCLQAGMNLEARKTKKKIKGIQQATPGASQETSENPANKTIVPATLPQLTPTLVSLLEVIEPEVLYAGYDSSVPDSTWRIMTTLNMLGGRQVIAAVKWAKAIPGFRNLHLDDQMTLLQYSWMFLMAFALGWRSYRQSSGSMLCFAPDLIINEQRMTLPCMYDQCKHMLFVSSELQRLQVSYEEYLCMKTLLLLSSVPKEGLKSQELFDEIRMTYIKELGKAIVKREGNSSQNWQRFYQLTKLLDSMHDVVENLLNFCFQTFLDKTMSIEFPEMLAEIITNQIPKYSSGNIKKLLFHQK
In words: Antagonist activity at GR in dog PBMC assessed as reduction in dexamethasone-induced GILZ gene expression incubated for 6 hrs by RT-qPCR method. The class given is cell-based.

Data set [14] has as its target T2, Glucocorticoid receptor. In words: Antagonist activity at GR in mini pig PBMC assessed as reduction in dexamethasone-induced FKBP5 gene expression incubated for 24 hrs by RT-qPCR method. The class given is cell-based.
For data set [15], the target named is T5, glucocorticoid receptor (GR) (Homo sapiens, UniProt P04150).
T5 sequence (P04150 whole entry): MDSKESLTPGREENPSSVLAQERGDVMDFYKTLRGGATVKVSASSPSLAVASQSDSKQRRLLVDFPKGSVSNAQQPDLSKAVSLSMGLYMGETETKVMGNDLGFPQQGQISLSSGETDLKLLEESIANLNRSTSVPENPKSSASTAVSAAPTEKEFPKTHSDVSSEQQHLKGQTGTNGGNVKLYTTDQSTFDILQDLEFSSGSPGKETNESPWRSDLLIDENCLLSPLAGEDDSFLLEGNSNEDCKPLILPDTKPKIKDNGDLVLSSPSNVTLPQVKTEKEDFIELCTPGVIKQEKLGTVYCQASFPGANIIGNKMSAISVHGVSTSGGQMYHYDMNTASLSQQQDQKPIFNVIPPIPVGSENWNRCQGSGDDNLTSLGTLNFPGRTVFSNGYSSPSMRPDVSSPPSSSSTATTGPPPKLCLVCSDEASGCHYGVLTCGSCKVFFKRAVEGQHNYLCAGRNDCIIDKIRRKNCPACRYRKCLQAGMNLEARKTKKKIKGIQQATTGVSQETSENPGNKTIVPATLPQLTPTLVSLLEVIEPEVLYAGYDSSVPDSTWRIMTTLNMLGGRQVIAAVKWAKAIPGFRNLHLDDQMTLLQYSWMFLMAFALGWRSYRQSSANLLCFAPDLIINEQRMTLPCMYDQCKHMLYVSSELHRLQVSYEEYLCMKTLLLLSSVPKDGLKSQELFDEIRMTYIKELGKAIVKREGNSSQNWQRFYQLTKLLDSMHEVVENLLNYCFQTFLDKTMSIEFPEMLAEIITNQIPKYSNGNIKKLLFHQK
The data set can be described thus: Agonist activity at human GR expressed in CHO-K1 cells incubated for 20 hrs by luciferase reporter gene assay relative to dexamethasone. To be noted: CHO-K1 cells expressing human GR. The class given is cell-based. (In general: In a reporter assay the amount or activity of a reporter protein is the signal.)

Data set [16] can be described thus: Antagonist activity at GR in monkey PBMC assessed as reduction in dexamethasone-induced FKBP5 gene expression incubated for 6 hrs by RT-qPCR method. To be noted: Macaca mulatta. The class given is cell-based.
Data set [17] concerns the target T4, Glucocorticoid receptor. In words: Antagonist activity at GR in dog PBMC assessed as reduction in dexamethasone-induced FKBP5 gene expression incubated for 6 hrs by RT-qPCR method. The class given is cell-based.

Sequence of Cytochrome P450 2C9 (P11712 whole entry): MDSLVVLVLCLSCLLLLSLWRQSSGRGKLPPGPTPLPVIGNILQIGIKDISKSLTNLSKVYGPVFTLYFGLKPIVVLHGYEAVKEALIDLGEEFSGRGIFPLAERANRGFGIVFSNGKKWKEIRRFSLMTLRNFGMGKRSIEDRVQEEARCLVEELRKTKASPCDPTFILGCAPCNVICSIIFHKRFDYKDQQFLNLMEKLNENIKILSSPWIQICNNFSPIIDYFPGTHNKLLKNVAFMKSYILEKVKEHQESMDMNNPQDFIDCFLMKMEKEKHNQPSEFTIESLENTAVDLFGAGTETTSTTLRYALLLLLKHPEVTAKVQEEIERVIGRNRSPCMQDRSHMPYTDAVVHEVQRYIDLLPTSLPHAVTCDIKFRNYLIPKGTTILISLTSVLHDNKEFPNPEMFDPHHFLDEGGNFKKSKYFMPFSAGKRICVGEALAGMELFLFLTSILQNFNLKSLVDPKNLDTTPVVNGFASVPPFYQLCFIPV

Turning to `Nc1ccn([C@@H]2O[C@H](CO)[C@@H](O)C2(F)F)c(=O)n1`, the TGI result with OVCAR-5 is “Active”.

`C[C@]1(O)CC[C@H]2[C@@H]3CCC4=CC(=O)CCC4=C3C=C[C@@]21C` [METRIBOLONE]: the Activity result on Androgen receptor [1] was “Not Active”; at Androgen receptor [2] it was “Active”; at Androgen receptor [3], “Not Active”; on Androgen receptor [4], “Active”.

`CC#C[C@]1(O)CC[C@H]2[C@@H]3CCC4=CC(=O)CCC4=C3[C@@H](c3ccc(N(C)C)cc3)C[C@@]21C` [MIFEPRISTONE]: the highest level in data set [5] (Cmax) was 24 ng/mL. The compound further gave a half-life in data set [6] of 1.6 h. Moreover, the half-maximal inhibitory concentration (IC50) was 10.9 to 25.7 nM at Glucocorticoid receptor [7]; 4900 nM against Cytochrome P450 2C9; 1500 nM on Cytochrome P450 2C8; 13.9 nM in [12]; 32.6 nM at Glucocorticoid receptor [13]; 19.7 nM at Glucocorticoid receptor [14]. The results for the concentration for half-maximal inhibition (IC50) (in data set [16]; at Glucocorticoid receptor [17]) were 21.9 nM and 20.2 nM, respectively. The Vd in data set [8] is 4.1 L/kg. The compound also had a clearance in data set [9] of 61.7 mL/min/kg. Moreover, the bioavailability in data set [10] worked out at 6.4%. For the same compound, in [11], the area under the curve (AUC) worked out at 85 ng·h/mL. In [15], this compound came in with a maximal effect (Emax) at 20 h of 3.1%.
